Results from patent publication US8470872B2, “Compounds with activity at estrogen receptors” (Acadia Pharmaceuticals Inc., priority 2007, dated 2013).

Tests used:
ERβ [1] = target: T1, ERβ (Homo sapiens, UniProt Q92731); test: Luciferase reporter gene assay (3*ERE) in HEK293 cells, ERβ; type: cell-based; conditions: 48 hours with test compounds; for EC50: read-out: Luciferase ERβ pEC50 (converted)
Method: (§1) HEK293 cells were grown to 70% confluency in DMEM containing 10% calf serum (Hyclone) prior to transfection. On the day of transfection (day 1), expression vectors for ERa or ERb were cotransfected along a construct containing a synthetic 3*ERE (estrogen response element) upstream of the luciferase gene (Panomics), using Polyfect (Qiagen) per manufacturer's recommendations. Sixteen hours post-transfection, cells were incubated in serum free DMEM. On day 3, cells were incubated with the test compounds for 48 hours in serum free DMEM. Cells extracts were then obtained by lyzing and the Luciferase activity measured. All of these steps were performed using a commercially available kit (Promega).

ERα [2] = target: T2, ERα (Homo sapiens, UniProt P03372); test: R-SAT (Receptor Selection and Amplification Technology) functional assay, ERα; type: cell-based; parameters: expressed in transfected cells; host or cells: NIH-3T3 fibroblasts, transient transfection; conditions: NIH-3T3 fibroblasts transfected with receptor, na = not active; for EC50: read-out: R-SAT ERα pEC50 (converted)
T2 sequence (P03372 1-595): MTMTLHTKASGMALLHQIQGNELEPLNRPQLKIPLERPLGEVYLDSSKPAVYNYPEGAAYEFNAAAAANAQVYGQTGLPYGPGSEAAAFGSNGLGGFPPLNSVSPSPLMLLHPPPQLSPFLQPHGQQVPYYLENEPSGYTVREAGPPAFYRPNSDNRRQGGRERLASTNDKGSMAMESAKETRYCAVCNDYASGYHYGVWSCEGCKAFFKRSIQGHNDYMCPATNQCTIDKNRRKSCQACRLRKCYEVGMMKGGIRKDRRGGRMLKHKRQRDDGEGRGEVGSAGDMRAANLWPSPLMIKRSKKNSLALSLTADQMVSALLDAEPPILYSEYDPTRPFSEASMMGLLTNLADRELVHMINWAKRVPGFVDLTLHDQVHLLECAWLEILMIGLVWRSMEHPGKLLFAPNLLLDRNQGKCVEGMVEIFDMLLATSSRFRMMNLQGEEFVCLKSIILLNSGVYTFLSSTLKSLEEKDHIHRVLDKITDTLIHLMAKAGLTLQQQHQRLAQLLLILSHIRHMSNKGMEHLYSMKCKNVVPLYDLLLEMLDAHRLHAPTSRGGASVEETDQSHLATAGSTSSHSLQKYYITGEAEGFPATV
Text: (§2) R-SAT® (Receptor Selection and Amplification Technology) is a cell-based functional assay that allows one to monitor receptor-dependent proliferative responses and has been described elsewhere. The technology has been validated for a number of receptors including GPCRs (Brauner-Osborne and Brann 1996), RTKs (Burstein et al. 1998), cytokine receptors (Piu et al. 2002) and nuclear receptors (Piu et al. 2005; Piu et al. 2006). This process is achieved by partial cellular transformation via loss of contact inhibition and growth factor dependency. Monitoring is achieved by transfecting the cells with a β-galactosidase reporter gene vector whose expression is under a constitutively active promoter. Briefly, NIH-3T3 fibroblasts were plated overnight in 96-wells plates in DMEM 10% calf serum (Hyclone) and grown to 60-70% confluency prior to transfection. Transient transfections were performed using Polyfect (Qiagen) according to manufacturer's instructions. Typically a transfection mix would consist of the receptor and the β-galactosidase expression vectors. Sixteen hours post-transfection, cells were incubated with different doses of ligand in DMEM containing 30% Ultraculture (Hyclone) and 0.4% calf serum (Hyclone) to generate a dose response curve. After 5 days, plates were developed by adding onto the washed cells a solution containing the β-galactosidase substrate o-nitrophenyl-D-galacto pyranoside ONPG (in phosphate-buffered saline with 5% Nonidet P-40 detergent) as described (Piu et al. 2002). Plates were read using a microplate reader at 420 nm. Data from R-SAT® assays were fit to the equation: r=A+B(x/(x+c)), where A=minimum response, B=maximum response minus minimum response, c=EC50, r=response, and x=concentration of ligand. Curves were generated using the curve fitting softwares Excel Fit and GraphPad Prism (San Diego, Calif.).

ERα [3] = target: T2, ERα; test: Luciferase reporter gene assay (3*ERE) in HEK293 cells, ERα; type: cell-based; conditions: 48 hours with test compounds; for EC50: read-out: Luciferase ERα pEC50 (converted)
Method: as §1

ERβ [4] = target: T1, ERβ; test: R-SAT (Receptor Selection and Amplification Technology) functional assay, ERβ; type: cell-based; parameters: expressed in transfected cells; host or cells: NIH-3T3 fibroblasts, transient transfection; conditions: NIH-3T3 fibroblasts transfected with receptor, na = not active; for EC50: read-out: R-SAT ERβ pEC50 (converted)
Text: as §2

ERβ [5] = target: T1, ERβ; test: Competitive 3H-estradiol binding assay, ERβ; conditions: cytosolic extracts of transfected HEK293T cells, 1 nM 3H-estradiol; read-out: Binding ERβ pKi (converted)
Method: (§3) HEK293T cells were transiently transfected for 48 hours with expression vectors encoding ERα or ERβ, before being serum starved for 4-6 hours. Cells were then harvested by scraping in ice-cold PBS and subsequently lysed using a cold buffer containing 10 mM Tris pH 7.4, 1 mM EDTA, 1 mM DTT before being subjected to polytron twice for 10 seconds. Cytosolic extracts were isolated by centrifugation at 15000 g for 30 minutes at 4° C. Competitive binding of the test compounds or the estradiol control was performed on 20 uL extract by overnight incubation at 4° C. in a total volume of 100 μL containing 1 nM ^3H-estradiol (Perkin Elmer, Boston, Mass.). The bound fraction was separated from the unbound one by the addition of 100 μL of Dextran coated charcoal, incubated for 10 minutes and subsequent centrifugation at 1000 rpm for 10 minutes. Samples (100 μL per sample) were then analyzed by liquid scintillation. Data was then analyzed using the curve fitting software GraphPad Prism.

ERα [6] = target: T2, ERα; test: Competitive 3H-estradiol binding assay, ERα; conditions: cytosolic extracts of transfected HEK293T cells, 1 nM 3H-estradiol; read-out: Binding ERα pKi (converted)
Method: as §3

T1 sequence (Q92731 whole entry, species assumed): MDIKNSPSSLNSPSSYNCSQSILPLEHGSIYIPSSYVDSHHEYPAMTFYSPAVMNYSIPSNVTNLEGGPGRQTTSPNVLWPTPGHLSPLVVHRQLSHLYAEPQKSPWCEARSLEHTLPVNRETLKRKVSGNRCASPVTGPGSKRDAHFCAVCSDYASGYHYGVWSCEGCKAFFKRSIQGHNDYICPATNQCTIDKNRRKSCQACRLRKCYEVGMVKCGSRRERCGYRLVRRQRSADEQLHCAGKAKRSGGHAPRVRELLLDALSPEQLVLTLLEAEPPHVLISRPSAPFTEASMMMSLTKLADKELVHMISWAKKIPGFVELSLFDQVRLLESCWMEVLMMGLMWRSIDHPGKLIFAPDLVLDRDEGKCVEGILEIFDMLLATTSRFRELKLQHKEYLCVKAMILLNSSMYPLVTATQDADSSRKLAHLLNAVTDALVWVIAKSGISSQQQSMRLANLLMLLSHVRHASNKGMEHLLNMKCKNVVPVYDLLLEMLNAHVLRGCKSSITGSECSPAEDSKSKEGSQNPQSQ

| Structure (SMILES) | Luciferase ERβ % Eff (ERβ [1]) | EC50 (ERβ [1]) | R-SAT ERα % Eff (ERα [2]) | EC50 (ERα [2]) | Luciferase ERα % Eff (ERα [3]) | EC50 (ERα [3]) | R-SAT ERβ % Eff (ERβ [4]) | EC50 (ERβ [4]) | Ki (ERβ [5]) | Ki (ERα [6]) |
| --- | --- | --- | --- | --- | --- | --- | --- | --- | --- | --- |
| Oc1ccc(C23CCCCCC2Oc2cccc(F)c23)cc1 (single isomer, unassigned) [Compound 231, 4-(1-Fluoro-6,7,8,9,10,10a-hexahydro-5aH-benzo[b]cyclohepta[d]-furan-10a-yl)phenol] | 114% | 0.158 nM | 86% | 158 nM | 43% | 200 nM | 91% | 1 nM |  |  |
| Oc1ccc(C23CCCCCC2Oc2c(F)cccc23)cc1 (centres unmarked) [Compound 447, 4-(4-Fluoro-6,7,8,9,10,10a-hexahydro-5aH-benzo[b]cyclohepta-[d]furan-10a-yl)phenol] | 122% | 0.631 nM | 97% | 398 nM | 25% | 398 nM | 85% | 5.01 nM |  |  |
| Oc1ccc(C23CCCCCC2Oc2ccc(F)cc23)cc1 (centres unmarked) [Compound 448, 4-(2-Fluoro-6,7,8,9,10,10a-hexahydro-5aH-benzo[b]cyclohepta[d]-furan-10a-yl)phenol] | 114% | 0.1 nM | 92% | 398 nM | 36% | 316 nM | 83% | 1.26 nM |  |  |
| Oc1ccc(C23CCCCCC2Oc2ccccc23)cc1 (centres unmarked) [Compound 807, 4-(6,7,8,9,10,10a-Hexahydro-5aH-benzo[b]cyclohepta[d]furan-10a-yl)phenol] | 81% | 0.316 nM | 93% | 398 nM | 51% | 316 nM | 99% | 1.26 nM | 5.01 nM | 79.4 nM |
| Oc1ccc(C23CCCCC2Oc2ccccc23)cc1 (centres unmarked) [Compound 961, 4-(5a,6,7,8,9,9a-Hexahydrodibenzo[b,d]furan-9a-yl)phenol] | 86% | 7.94 nM | 95% | 1000 nM | 54% | 794 nM | 100% | 10 nM |  |  |

The remaining lines, values ahead:

| Luciferase ERβ % Eff (ERβ [1]) | EC50 (ERβ [1]) | R-SAT ERα % Eff (ERα [2]) | EC50 (ERα [2]) | Luciferase ERα % Eff (ERα [3]) | EC50 (ERα [3]) | R-SAT ERβ % Eff (ERβ [4]) | EC50 (ERβ [4]) | Ki (ERβ [5]) | Ki (ERα [6]) | Structure (SMILES) |
| --- | --- | --- | --- | --- | --- | --- | --- | --- | --- | --- |
| 80% | 7.94 nM | 37% | 794 nM | 27% | 1260 nM | 76% | 10 nM |  |  | Oc1ccc(C23CCCCCC2Oc2cccc(F)c23)cc1 (single isomer, unassigned) [Compound 232, 4-(1-Fluoro-6,7,8,9,10,10a-hexahydro-5aH-benzo[b]cyclohepta[d]-furan-10a-yl)phenol] |
|  |  | 108% | 15.8 nM |  |  | 87% | 0.0501 nM |  |  | Oc1ccc(C23CCCCCC2Oc2cccc(F)c23)cc1 (single isomer, unassigned) [Compound 982, 4-(1-Fluoro-6,7,8,9,10,10a-hexahydro-5aH-benzo[b]cyclohepta[d]-furan-10a-yl)phenol] |
| 129% | 2.51 nM | 70% | 631 nM | 51% | 631 nM | 97% | 6.31 nM | 25.1 nM | 126 nM | Oc1ccc(C23CCCCC2Oc2cccc(F)c23)cc1 (centres unmarked) [Compound 130, 4-(1-Fluoro-5a,6,7,8,9,9a-hexahydrodibenzo[b,d]furan-9a-yl)phenol] |
|  | 316 nM | 16% |  | 6.4% |  | 24% |  |  |  | Oc1ccc(C23CCCCC=C2Oc2cccc(F)c23)cc1 (centres unmarked) [Compound 349, (E)-4-(1-Fluoro-8,9,10,10a-tetrahydro-7H-benzo[b]cyclohepta-[d]furan-10a-yl)phenol] |
